Patent US4788069A (The Coca-Cola Company, priority 1987, dated 1988)
Residues, ends and D or L forms follow the SMILES beside them.

Legend:
[1] = cited from earlier work; for times sweeter than sucrose: prior art value, weight to weight stated for formula 1
[2] = Sweetness relative to sucrose, compounds tasted in aqueous solution; details: for Sweetness (x sucrose w/w): Table I, diastereomeric mixtures of L-aspartyl-3-(bicycloalkyl) D,L-alanine methyl esters
Procedure: The 2R-endo- and 2R-exo-fenchyl esters described by Fujino, cited above, have sweetness of high intensity.
In Table I, the reported sweetness is measured for diastereomeric mixtures. The sweetness of each optically pure compound according to the invention will differ from the sweetness of the mixture.
The sweetness values of each compound shown in Table I correspond to a mixture of optical isomers, whose maximum theoretical number of isomers is listed. In order to evaluate the sweetness of different isomeric forms, four pairs of optical isomers of one of the novel compounds were synthesized. Each pair differed from the others only in the stereochemistry of the bicyclic camphor ring.

## CC12CCC(C1)C(C)(C)C2OC(=O)C(NC(=O)C(N)CC(=O)O)c1ccccc1 (stereo not drawn) [2R, exo-fenchyl ester]
[1]; prior art fenchyl esters
  sweetness intensity (in words): high sweetness intensities

## COC(=O)C(CC1CC2CCC1C2)NC(=O)[C@@H](N)CC(=O)O (stereo partly drawn) [(R,S)endo norbornyl, L-Aspartyl-D,L-(endo-R,S-norbornyl)-3-alanine methyl ester]
[2]
  Sweetness (x sucrose w/w): 290 x sucrose w/w

## COC(=O)C(CC1CC2CCC1C2)NC(=O)C(N)CC(=O)O [(R,S)exo norbornyl]
[2]
  Sweetness (x sucrose w/w): 200 x sucrose w/w

## COC(=O)C(NC(=O)[C@@H](N)CC(=O)O)C(=O)OC1C2(C)CCC(C2)C1(C)C (stereo partly drawn) [L-aspartyl-2-amino malonyl methyl fenchyl diester]
[1]
  times sweeter than sucrose: 20,000 times sweeter than sucrose

## COC(=O)[C@H](Cc1ccccc1)NC(=O)[C@@H](N)CC(=O)O [L-aspartyl-L-phenylalanine methyl ester] (H-Asp-Phe-OMe)
[1]
  times sweeter than sucrose: about 180 times sweeter than sucrose

## COC(=O)C(CC1CC2CCC1C2)NC(=O)[C@@H](N)CC(=O)O (stereo partly shown) [norbornyl]
[2]
  Sweetness (x sucrose w/w): 225 x sucrose w/w

## (alpha-carboxy) glycyl-3-norbornylalanine methyl ester
[2]; formula 4 tasted in aqueous solution
  sweetness (in words): intensely sweet
